Earlier results as cited in patent EP0620000A2, “Cosmetic or pharmaceutical use of N-acylalcanolamines” (RHONE-POULENC RORER GMBH, priority 1992, dated 1994).

Conditions: orale Anwendung; tierexperimentelle Prüfungen; DE 27 56 866 A1

N-Oleyl-Phosphatidylethanolaminen
antiarteriosklerotische bzw. antilipämische Wirkung: deutlich antiarteriosklerotische bzw. antilipämische Wirkung
